Laboratory results as given in US8476064B2, “Inhibition assay method and device for detection of antibiotics” (Charm Sciences, Inc., priority 2006, dated 2013).

Assays:
[1] = tested on: B.st. spores; assay: Antibiotic detection test in spiked milk, Trizma/succinate culture of Example 7 (Table 5); format: cell-based, Bacillus (Geobacillus) Stearothermophilus; details: for % Pos (16 hr Result) / 16 hr Result: 16 hours later; for % Pos (Result) / Result: immediately after test completion
Method: A Trizma/Succinate solution was prepared by adding 2.5 grams Trizma Base and 6 grams Succinate to 100 mL of reverse osmosis/deionized water (RO/DI Water) in a 125 mL flask. 40 milligrams of BCP (see example 1 for BCP preparation) was then added to a 50 mL conical tube and 25 mL of the Trizma/Succinate solution was added to the 40 milligrams BCP and mixed.
The media was prepared by dissolving 5 grams glucose and 1 gram Mueller Hinton Broth in 100 mL RO/DI Water. 1.2 mL of a 0.01 mg/mL solution of trimethoprim in RO/DI water was added to the media. 20 mL of the BCP/Trizma/Succinate preparation was added to the media and the media was sterile filtered through a 0.45 micron filter and cooled to 4 degrees C.
0.3 grams Difco Bacto-Agar (Item #0140-01), 0.225 NaCl and 17 mL of RO/DI water was combined and mixed and heated the mixture to 95° C. The mixture was removed from the heat and allowed it to cool to 75° C. and then 6 mL media (with BCP/Tris) was added and mixed for 5 minutes. The mixture was cooled to 57° C. and 2 mL spore (concentration of 1 billion cfu/mL) was added and mixed for 5 minutes. 0.200 mL was dispensed into the bottom of each vial.
In test operation 200 microliters of various milk samples, spiked with known concentrations of antibiotics, were pipetted into vials and incubated for the prescribed time (in this test 2 hours 30 minutes) and prescribed temperature (64 degrees C.+/−2 degrees C.). Results were recorded immediately after test completion and 16 hours later. Incubation was in various Charm Inctronic I incubators. Concentrations listed are in parts per billion (ppb). 4 samples were run at each concentration except 16 negative samples were run and 2 samples each for 3 ppb pen G and amoxicillin. Abbreviations are pencillin G (PenG); sulfamethazine (SMZ); sulfadimethoxine (SDM); tylosin (TY); gentamicin (G); oxytetracycline (OT); pirlimycin (Pirl); amoxicillin (Amox); ampicillin (Amp); cloxacillin (Clox); ceftiofur sodium (Ceft); cephaprin (Ceph); tilmicosin (Til); sulfadoxine (SDN); neomycin (Neo).

[2] = tested on: B.st. spores; assay: Single service kidney swab microbial growth inhibition test, culture of Example 1, with or without beta-lactam receptor; format: cell-based, Bacillus (Geobacillus) Stearothermophilus; details: 12.5 ppb penicillin G; Receptor added dried on swab; further: key: positive (+); negative (−)

## CN(C)[C@@H]1C(O)=C(C(N)=O)C(=O)[C@@]2(O)C(O)=C3C(=O)c4c(O)cccc4[C@@](C)(O)[C@H]3[C@H](O)[C@@H]12 [OT, oxytetracycline]
[1]; milk spiked at 200 ppb
  % Pos (16 hr Result): 0%
  % Pos (Result): 0%
[1]; milk spiked at 300 ppb
  % Pos (16 hr Result): 100%
  % Pos (Result): 100%

## CC1(C)S[C@@H]2[C@H](NC(=O)Cc3ccccc3)C(=O)N2[C@H]1C(=O)O [PenG, penicillin G]
[2]
  test result: −
[1]; milk spiked at 3 ppb
  16 hr Result: Pos
  % Pos (16 hr Result): 100%
  % Pos (Result): 100%
  Result: Pos
[1]; milk spiked at 4 ppb
  16 hr Result: Pos
  % Pos (16 hr Result): 100%
  % Pos (Result): 100%
  Result: Pos

## COc1cc(NS(=O)(=O)c2ccc(N)cc2)nc(OC)n1 [SDM, sulfadimethoxine]
[1]; milk spiked at 25 ppb
  16 hr Result: Pos
  % Pos (16 hr Result): 100%
  % Pos (Result): 100%
  Result: Pos
[1]; milk spiked at 50 ppb
  16 hr Result: Pos
  % Pos (16 hr Result): 100%
  % Pos (Result): 100%
  Result: Pos

## Cc1cc(C)nc(NS(=O)(=O)c2ccc(N)cc2)n1 [SMZ, sulfamethazine]
[1]; milk spiked at 100 ppb
  16 hr Result: Pos
  % Pos (16 hr Result): 100%
  % Pos (Result): 100%
  Result: Pos
[1]; milk spiked at 200 ppb
  16 hr Result: Pos
  % Pos (16 hr Result): 100%
  % Pos (Result): 100%
  Result: Pos

## CC[C@H]1OC(=O)C[C@@H](O)[C@H](C)[C@@H](O[C@@H]2O[C@H](C)[C@@H](O[C@H]3C[C@@](C)(O)[C@@H](O)[C@H](C)O3)[C@H](N(C)C)[C@H]2O)[C@@H](CC=O)C[C@@H](C)C(=O)/C=C/C(C)=C/[C@@H]1CO[C@@H]1O[C@H](C)[C@@H](O)[C@@H](OC)[C@H]1OC [TY, tylosin]
[1]; milk spiked at 40 ppb
  16 hr Result: Pos
  % Pos (16 hr Result): 100%
  % Pos (Result): 100%
  Result: Pos
[1]; milk spiked at 50 ppb
  16 hr Result: Pos
  % Pos (16 hr Result): 100%
  % Pos (Result): 100%
  Result: Pos

## gentamicin
[1]; milk spiked at 300 ppb
  16 hr Result: Pos
  % Pos (16 hr Result): 100%
  % Pos (Result): 100%
  Result: Pos
[1]; milk spiked at 400 ppb
  16 hr Result: Pos
  % Pos (16 hr Result): 100%
  % Pos (Result): 100%
  Result: Pos
